# Target: T1, CRBN (Homo sapiens, UniProt Q96SW2)
# T1 construct: endogenous in cells; host or cells: Flp-In 293 cells stably expressing BRD4BD2-eGFP and mCherry
# Assay: Cellular CRBN engagement assay (competition with dBET6, BRD4BD2-eGFP reporter)
# Assay type: cell-based
# Settings: FIG. 1; for cell permeability (from cellular CRBN engagement): Flp-In 293 reporter cells; for IC50: competition with 100 nM dBET6, 5 h, Flp-In 293 cells expressing BRD4BD2-eGFP and mCherry
# Procedure: BRD4BD2 was subcloned into mammalian pcDNA5/FRT Vector (Ampicillin and Hygromycin B resistant) modified to contain MCS-eGFP-P2A-mCherry. Stable cell lines expressing eGFP-protein fusion and mCherry reporter were generated using Flp-In™ 293 system. Plasmid (0.3 μg) and pOG44 (4.7 μg) DNA were preincubated in 100 μL of Opti-MEM™ I (Gibco™, Life Technologies™) media containing 0.05 mg/ml Lipofectamine 2000 (Invitrogen™) for 20 min and added to Flp-In™ 293 cells containing 1.9 ml of Dulbecco's Modified Eagle Medium (DMEM) media (Gibco™, Life Technologies™) per well in a 6-well plate format (Falcon, 353046). Cells were propagated after 48 h and transferred into a 10 cm^2 plate (Corning®, 430165) in DMEM media containing 50 μg/ml of Hygromycin B (Invitrogen™, REF 10687010) as a selection marker. Following 2-3 passage cycles, FACS (FACSAria™ II, BD) was used to enrich for cells expressing eGFP and mCherry.
# Stable cells expressing the BRD4BD2-eGFP protein fusion and the mCherry reporter were seeded at a density of 1000-4000 cells/well in a 384-well plate with 50 μL per well of FluoroBrite™ DMEM media (Thermo Fisher Scientific, A18967) supplemented with 10% FBS a day before compound treatment. Compounds and 100 nM dBET6 were dispensed using a D300e Digital Dispenser (HP), normalized to 0.5% DMSO, and incubated with the cells for 5 h. The assay plate was imaged immediately using an acument High Content Imager (TTP Labtech) with 488 nm and 561 nm lasers in a […] grid per well format. The resulting images were analyzed using CellProfiler™ (Carpenter et al., Genome Biol. 7(10):R100 (2006)). A series of image analysis steps (an ‘image analysis pipeline’) was constructed. First, the red and green channels were aligned and cropped to target the middle of each well (to avoid analysis of the heavily clumped cells at the edges). A background illumination function was calculated for both red and green channels of each well individually and subtracted to correct for illumination variations across the 384-well plate from various sources of error. An additional step was then applied to the green channel to suppress the analysis of large auto fluorescent artifacts and enhance the analysis of cell specific fluorescence by way of selecting for objects under a given size (30 A.U.) and with a given shape (speckles). mCherry-positive cells were then identified in the red channel by filtering for objects 8-60 pixels in diameter and by using intensity to distinguish between clumped objects. […] The fraction of GFP-positive cells/mCherry-positive cells in each well was then calculated, and the green and red images were rescaled for visualization. […]
SMILES,cell permeability (from cellular CRBN engagement),IC50 [µM]
O=C1CCC(N2C(=O)c3cccc(NCCCCCCN4CCC(CNC(=O)c5cccc(-c6noc(C(F)(F)F)n6)c5)(c5nc(-c6ccccc6)cs5)CC4)c3C2=O)C(=O)N1 (stereo not shown) [Compound 1],cell permeable,0.14
"CCN(CCNc1cccc2c1C(=O)N(C1CCC(=O)NC1=O)C2=O)C[C@@H](C)NC(=O)c1ccc(-c2noc(C(F)(F)F)n2)cc1 (stereo partly drawn) [Compound 16, N-((2R)-1-((2-((2-(2,6-dioxopiperidin-3-yl)-1,3-dioxoisoindolin-4-yl)amino)ethyl)(ethyl)amino)propan-2-yl)-4-(5-(trifluoromethyl)-1,2,4-oxadiazol-3-yl)benzamide]",cell permeable,6.98

# From patent US20240246956A1, “CLASS IIA HISTONE DEACETYLASE (HDAC) DEGRADER LIGANDS AND METHODS OF USE THEREOF” (DANA-FARBER CANCER INSTITUTE, INC., priority 2021, published 2024)
